Laboratory results as given in the NIST ThermoML archive (doi:10.1016/j.jct.2010.06.008).
± gives the expanded uncertainty stated by the source.

Test: xn = mol fraction of the nth substance listed
Conditions: 101 kPa, Liquid; for speed of sound: Sing-around technique in a fixed-path interferometer; for mass density: Vibrating tube method

CC(C)(C)Cl [2-chloro-2-methylpropane] + CCCCCCC
Conditions | mass density, 283.15 K [kg/m3] | mass density, 298.15 K [kg/m3] | mass density, 313.15 K [kg/m3] | speed of sound, 283.15 K [m/s] | speed of sound, 298.15 K [m/s] | speed of sound, 313.15 K [m/s]
x2 = 0 | 855.249 ± 0.24 | 837.096 ± 0.24 | 818.536 ± 0.24 | 1046.9 ± 2.3 | 983.25 ± 2.3 | 919.41 ± 2.3
x2 = 0.0519 | 843.365 ± 0.24 | 825.671 ± 0.24 | 807.559 ± 0.24 | 1053 ± 2.3 | 989.06 ± 2.3 | 925.62 ± 2.3
x2 = 0.1021 | 832.352 ± 0.24 | 815.034 ± 0.24 | 797.321 ± 0.24 | 1059 ± 2.3 | 995.16 ± 2.3 | 931.82 ± 2.3
x2 = 0.2015 | 811.803 ± 0.24 | 795.208 ± 0.24 | 778.248 ± 0.24 | 1071.6 ± 2.3 | 1007.9 ± 2.3 | 944.63 ± 2.3
x2 = 0.3006 | 792.846 ± 0.24 | 776.886 ± 0.24 | 760.618 ± 0.24 | 1085.1 ± 2.3 | 1021.5 ± 2.3 | 957.98 ± 2.3
x2 = 0.3997 | 775.339 ± 0.24 | 759.908 ± 0.24 | 744.157 ± 0.25 | 1099.1 ± 2.3 | 1035.7 ± 2.3 | 972.04 ± 2.3
x2 = 0.5027 | 758.514 ± 0.24 | 743.587 ± 0.25 | 728.394 ± 0.25 | 1114.5 ± 2.3 | 1051.1 ± 2.3 | 987.29 ± 2.3
x2 = 0.6011 | 743.606 ± 0.25 | 729.156 ± 0.25 | 714.479 ± 0.25 | 1129.7 ± 2.3 | 1066 ± 2.3 | 1002.2 ± 2.3
x2 = 0.7014 | 729.346 ± 0.25 | 715.392 ± 0.25 | 701.195 ± 0.25 | 1145.5 ± 2.3 | 1081.5 ± 2.3 | 1017.8 ± 2.3
x2 = 0.8007 | 716.295 ± 0.25 | 702.832 ± 0.25 | 689.124 ± 0.25 | 1161.5 ± 2.3 | 1097.1 ± 2.3 | 1033.3 ± 2.3
x2 = 0.8966 | 704.437 ± 0.25 | 691.409 ± 0.25 | 678.136 ± 0.25 | 1177.4 ± 2.3 | 1113.2 ± 2.3 | 1049.5 ± 2.3
x2 = 0.9518 | 697.935 ± 0.25 | 685.122 ± 0.25 | 672.064 ± 0.25 | 1187 ± 2.3 | 1122.5 ± 2.3 | 1058.7 ± 2.3

CCC(C)Cl (stereo not drawn) [2-chlorobutane] + CCCCCC
Conditions | mass density, 283.15 K [kg/m3] | mass density, 298.15 K [kg/m3] | mass density, 313.15 K [kg/m3] | speed of sound, 283.15 K [m/s] | speed of sound, 298.15 K [m/s] | speed of sound, 313.15 K [m/s]
x2 = 0 | 884.34 ± 0.23 | 867.474 ± 0.24 | 850.266 ± 0.24 | 1127.7 ± 2.3 | 1066.2 ± 2.3 | 1005.3 ± 2.3
x2 = 0.0509 | 870.642 ± 0.24 | 853.976 ± 0.24 | 836.967 ± 0.24 | 1126.4 ± 2.3 | 1064.5 ± 2.3 | 1003.3 ± 2.3
x2 = 0.1002 | 857.772 ± 0.24 | 841.229 ± 0.24 | 824.438 ± 0.24 | 1125.2 ± 2.3 | 1063.1 ± 2.3 | 1001.6 ± 2.3
x2 = 0.1802 | 837.449 ± 0.24 | 821.198 ± 0.24 | 804.693 ± 0.24 | 1124 ± 2.3 | 1061.4 ± 2.3 | 999.26 ± 2.3
x2 = 0.3029 | 807.817 ± 0.24 | 791.981 ± 0.24 | 775.929 ± 0.25 | 1123.1 ± 2.3 | 1059.7 ± 2.3 | 996.75 ± 2.3
x2 = 0.4045 | 784.524 ± 0.24 | 769.021 ± 0.25 | 753.339 ± 0.25 | 1123.4 ± 2.3 | 1059.3 ± 2.3 | 995.71 ± 2.3
x2 = 0.4991 | 763.875 ± 0.25 | 748.682 ± 0.25 | 733.339 ± 0.25 | 1124.5 ± 2.3 | 1059.8 ± 2.3 | 995.56 ± 2.3
x2 = 0.5974 | 743.353 ± 0.25 | 728.495 ± 0.25 | 713.496 ± 0.25 | 1126.5 ± 2.3 | 1061.1 ± 2.3 | 996.3 ± 2.3
x2 = 0.6992 | 723.059 ± 0.25 | 708.519 ± 0.25 | 693.898 ± 0.25 | 1129.5 ± 2.3 | 1063.4 ± 2.3 | 998 ± 2.3
x2 = 0.7996 | 704.031 ± 0.25 | 689.807 ± 0.25 | 675.523 ± 0.25 | 1133.3 ± 2.3 | 1066.8 ± 2.3 | 1000.8 ± 2.3
x2 = 0.8981 | 686.218 ± 0.25 | 672.305 ± 0.25 | 658.349 ± 0.26 | 1138.3 ± 2.3 | 1071.1 ± 2.3 | 1004.5 ± 2.3
x2 = 0.9477 | 677.555 ± 0.25 | 663.793 ± 0.26 | 650.005 ± 0.26 | 1141.4 ± 2.3 | 1073.7 ± 2.3 | 1006.9 ± 2.3

CCC(C)Cl (stereo not drawn) [2-chlorobutane] + CCCCCCC
mass density [kg/m3]
Conditions | 283.15 K | 298.15 K | 313.15 K
x2 = 0 | 884.34 ± 0.23 | 867.474 ± 0.24 | 850.266 ± 0.24
x2 = 0.0506 | 870.755 ± 0.24 | 854.132 ± 0.24 | 837.236 ± 0.24
x2 = 0.0989 | 858.319 ± 0.24 | 841.994 ± 0.24 | 825.335 ± 0.24
x2 = 0.2012 | 833.412 ± 0.24 | 817.61 ± 0.24 | 801.474 ± 0.24
x2 = 0.3016 | 810.786 ± 0.24 | 795.463 ± 0.24 | 779.843 ± 0.24
x2 = 0.3997 | 790.254 ± 0.24 | 775.401 ± 0.24 | 760.214 ± 0.24
x2 = 0.4984 | 771.15 ± 0.24 | 756.698 ± 0.24 | 741.962 ± 0.25
x2 = 0.5994 | 752.976 ± 0.24 | 738.95 ± 0.25 | 724.63 ± 0.25
x2 = 0.6994 | 736.272 ± 0.25 | 722.581 ± 0.25 | 708.679 ± 0.25
x2 = 0.7996 | 720.631 ± 0.25 | 707.328 ± 0.25 | 693.773 ± 0.25
x2 = 0.9006 | 705.927 ± 0.25 | 692.97 ± 0.25 | 679.768 ± 0.25
x2 = 0.9503 | 699.08 ± 0.25 | 686.282 ± 0.25 | 673.245 ± 0.25

CCCCCCC [heptane] + CC(C)(C)Cl
x1 = 1
Conditions | mass density [kg/m3] | speed of sound [m/s]
283.15 K | 692.422 ± 0.25 | 1195.7 ± 2.3
298.15 K | 679.783 ± 0.25 | 1131 ± 2.3
313.15 K | 666.908 ± 0.25 | 1067.2 ± 2.3

CCCCCCC [heptane] + CC(C)CCl
x1 = 1
Conditions | mass density [kg/m3] | speed of sound [m/s]
283.15 K | 692.422 ± 0.25 | 1195.7 ± 2.3
298.15 K | 679.783 ± 0.25 | 1131 ± 2.3
313.15 K | 666.908 ± 0.25 | 1067.2 ± 2.3

CCCCCCC [heptane] + CCC(C)Cl
Conditions | mass density, 283.15 K [kg/m3] | mass density, 298.15 K [kg/m3] | mass density, 313.15 K [kg/m3] | speed of sound, 313.15 K [m/s]
x1 = 1 | 692.422 ± 0.25 | 679.783 ± 0.25 | 666.908 ± 0.25 | –
x2 = 0 | – | – | – | 1005.3 ± 2.3

CCCCCCC [heptane] + CCCCCl
x1 = 1
Conditions | mass density [kg/m3]
283.15 K | 692.422 ± 0.25
298.15 K | 679.783 ± 0.25
313.15 K | 666.908 ± 0.25

CCCCCC [hexane] + CC(C)(C)Cl
x1 = 1
Conditions | mass density [kg/m3] | speed of sound [m/s]
283.15 K | 668.609 ± 0.25 | 1145.1 ± 2.3
298.15 K | 654.96 ± 0.25 | 1077 ± 2.3
313.15 K | 641.39 ± 0.26 | 1009.9 ± 2.3

CCCCCC [hexane] + CC(C)CCl
x1 = 1
Conditions | mass density [kg/m3] | speed of sound [m/s]
283.15 K | 668.609 ± 0.25 | 1145.1 ± 2.3
298.15 K | 654.96 ± 0.25 | 1077 ± 2.3
313.15 K | 641.39 ± 0.26 | 1009.9 ± 2.3

CCCCCC [hexane] + CCC(C)Cl
x1 = 1
Conditions | mass density [kg/m3] | speed of sound [m/s]
283.15 K | 668.609 ± 0.25 | 1145.1 ± 2.3
298.15 K | 654.96 ± 0.25 | 1077 ± 2.3
313.15 K | 641.39 ± 0.26 | 1009.9 ± 2.3

CCCCCC [hexane] + CCCCCl
x1 = 1
Conditions | mass density [kg/m3] | speed of sound [m/s]
283.15 K | 668.609 ± 0.25 | 1145.1 ± 2.3
298.15 K | 654.96 ± 0.25 | 1077 ± 2.3
313.15 K | 641.39 ± 0.25 | 1009.9 ± 2.3
